The text below walks through data of patent US8071650B2, “Thiourea derivatives and the pharmaceutical compositions containing the same” (Pacific Corporation, priority 2000, dated 2011).

The target of one assay is T1, vanilloid receptor (Rattus norvegicus, UniProt O35433).
T1 construct: DRG nerve cells from the primary culture of 2-3 days were equilibrated; endogenous in cells; host or cells: primary culture of dorsal root ganglion neurons from neonatal SD rats
Kind of assay: 45Ca influx test, antagonistic activity against capsaicin (Calcium Uptake Test, IC50). It is filed as cell-based. Here is the method: 1) Separation of Spinal Dorsal Root Ganglia (DRG) in Newborn Rats and Primary Culture Thereof
Neonatal(2-day old or younger than 2-day old) SD rats were put in ice for 5 minutes to anesthetize and disinfected with 70% ethanol. […] The DRG were incubated sequentially at 37° C. for 30 min in 200 U/ml collagenase and 2.5 mg/ml trypsin, separately. The ganglia were washed twice with DME/F12 medium supplemented with 10% horse serum, triturated through a fire-polished Pasteur pipette, filtered through Nitex 40 membrane to obtain single cell suspension. This was subjected to centrifugation, then re-suspended in cell culture medium at certain level of cell density. As the cell culture medium, DME/F12 medium supplemented with 10% horse serum, diluted 1:1 with identical medium conditioned by C6 glioma cells (2 days on a confluent monolayer) was used, and NGF(Nerve Growth Factor) was added to final concentration of 200 ng/ml. After the cells were grown 2 days in medium where cytosine arabinoside (Ara-C, 100 μM) was added to kill dividing nonneuronal cells, medium was changed to one without Ara-C. The resuspended cells were plated at a density of 1500-1700 neurons/well onto Terasaki plates previously coated with 10 μg/ml poly-D-ornithine.
2) ^45Ca Influx Experiments
DRG nerve cells from the primary culture of 2-3 days were equilibrated by washing 4 times with HEPES (10 mM, pH 7.4)-buffered Ca^2+, Mg^2+-free HBSS (H-HBSS). The solution in each well was removed from the individual well. Medium containing the test compound plus capsaicin (final concentration 0.5 μM) and ^45Ca (final concentration 10 μCi/ml) in H-HBSS was added to each well and incubated at room temperature for 10 min. Terasaki plates were washed six times with H-HBSS and dried in an oven. To each well, 0.3% SDS (10 μl) was added to elute ^45Ca. After the addition of […] of scintillation cocktail into each well, the amount of ^45Ca influx into neuron was measured by counting radioactivity.

The subject of assay [1] is Male ICR mice. Kind of assay: Analgesic activity test: mouse writhing test by inducing with phenyl-p-quinone. The settings on record: ip, 30 min before phenyl-p-quinone, read-out: Analgesic effect (% Inhibition); for inhibition in vivo at 10 mg/kg: dose 10 mg/kg intraperitoneally; for inhibition in vivo at 3 mg/kg: dose 3 mg/kg intraperitoneally. It is filed as in vivo. How it is done:
(3) Analgesic Activity Test: Mouse Writhing Test by Inducing with phenyl-p-quinone
Male ICR mice (mean body weight 25 g) were maintained in a controlled lighting environment (12 h on/12 h off) for experiment. Animals received an intraperitoneal injection of 0.3 ml of the chemical irritant phenyl-p-quinone (dissolved in saline containing 5% ethanol to be a dose of 4.5 mg/kg) and 6 min later, the number of abdominal constrictions was counted in the subsequent 6 min period. Animals (10 animals/group) received 0.2 ml of test compounds solution in vehicle of ethanol/Tween 80/saline (10/10/80) intraperitoneally 30 min before the injection of phenyl-p-quinone. A reduction in the number of writhes responding to the test drug compound relative to the number responding in saline control group was considered to be indicative of an analgesic effect Analgesic effect was calculated by % inhibition equation (% inhibition=(C−T)/C×100), wherein C and T represent the number of writhes in control and compound-treated group, respectively (Table 2).

Assay [2] has as its system Male ICR mice. Nature of the assay: Antiinflammatory activity test: TPA-induced mouse ear edema test. The assay is classed as in vivo. The settings on record: dose 1 mg/ear topically, ear weight 24 h after TPA. How it is done:
(4) Antiinflammatory Activity Test: TPA(12-O-tetraecanoylphorbol 13-acetate)-induced mouse ear edema test
Male ICR mice(body weight 25-30 g), 10 animals/group, were treated topically on the right ear with 30 μl of TPA (2.5 μg) solution in acetone and after 15 min, 30 μl of acetone or test compound solution in acetone was applied topically. After six hours, an identical treatment was applied again. After twenty four hours following the treatment of TPA, the animals were sacrificed and ear tissue was dissected using 6 mm-diameter punch. Ear tissue dissected were weighed to the nearest 0.1 mg on an electrobalance. The increased weight of the tissue compared to control group was considered as an index of inflammation. The percent inhibition is defined by the following equation:
% inhibition=(C−T)/C×100, wherein C and T represent an increase of ear weight in TPA-treated and TPA+drug-treated group, respectively (Table 3).

A further assay deals with Male SD rats. Nature of the assay: Ulcer test: ethanol-induced anti-ulcer test. It is filed as in vivo, rat. Conditions: dose 30 mg/kg orally, 1 hour before 99% ethanol. Here is the method:
(5) Ulcer Test: Ethanol-induced Anti-ulcer Test
Male SD rats (body weight 180-200 g), 5 animals/group, were fasted for 24 hours, and their stomaches were damaged. The rats were administered with 10 ml/kg of test drug suspended in 1% methylceflulose orally and, after 1 hour, 1 ml of 99% ethanol orally. After 1 hour without food and water, the rats were sacrificed by cervical dislocation and stomaches thereof were removed. The removed stomaches were incised along the greater curvature and opened.

Where [3] appears, read: Table 1a, neonatal SD rat DRG neurons, inhibition of response to capsaicin 0.5 μM.

pIC50: −log10 of the molar value. Where two headings read alike, the source gives them in different places.

T1 sequence (O35433 whole entry): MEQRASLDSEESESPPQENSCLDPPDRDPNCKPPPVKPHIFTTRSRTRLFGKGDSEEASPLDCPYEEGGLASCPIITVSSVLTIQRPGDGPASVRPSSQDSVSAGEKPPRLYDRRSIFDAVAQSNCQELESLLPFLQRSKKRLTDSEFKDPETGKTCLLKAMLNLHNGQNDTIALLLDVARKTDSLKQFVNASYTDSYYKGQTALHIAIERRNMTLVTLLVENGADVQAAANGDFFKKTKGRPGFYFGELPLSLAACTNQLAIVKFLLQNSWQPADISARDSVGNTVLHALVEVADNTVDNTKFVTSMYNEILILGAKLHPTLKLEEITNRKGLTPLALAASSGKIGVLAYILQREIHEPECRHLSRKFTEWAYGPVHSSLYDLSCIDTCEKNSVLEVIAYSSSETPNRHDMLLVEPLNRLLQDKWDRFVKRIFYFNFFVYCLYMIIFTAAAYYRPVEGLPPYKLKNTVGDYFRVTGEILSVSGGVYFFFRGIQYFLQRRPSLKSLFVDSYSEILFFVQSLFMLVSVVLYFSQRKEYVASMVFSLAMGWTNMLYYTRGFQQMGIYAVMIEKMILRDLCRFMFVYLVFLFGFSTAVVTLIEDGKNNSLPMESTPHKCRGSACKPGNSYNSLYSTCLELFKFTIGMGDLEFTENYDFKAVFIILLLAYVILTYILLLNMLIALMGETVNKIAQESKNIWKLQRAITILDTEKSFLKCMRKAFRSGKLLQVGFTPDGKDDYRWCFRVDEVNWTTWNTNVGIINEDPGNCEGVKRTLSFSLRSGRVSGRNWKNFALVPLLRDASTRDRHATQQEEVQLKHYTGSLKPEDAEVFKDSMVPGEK

For the compound `Oc1cc2c(cc1O)CN(C(=S)NCCc1ccc(Cl)cc1)CCC2` [Capsazepine, capsazepine, reference compound], the pIC50 (in general, −log10 of the IC50, conventionally taken in molar units) on vanilloid receptor is 6.23.
Turning to `Cn1cccc1CCNC(=S)NCc1ccc(C(C)(C)C)cc1` [Example 5, 1-(4-t-butylbenzyl)-3-[2-(1-methyl-1H-pyrrol-2-yl)ethyl]thiourea], the inhibition in vivo at 10 mg/kg in the assay with Male ICR mice [1] worked out at 53%. On vanilloid receptor, the pIC50 is 5.96.
In the case of `CC(C)(C)c1ccc(CNC(=S)NCc2cc(F)c(N)cc2F)cc1` [Example 9, 1-(4-amino-2,5-difluorobenzyl)-3-(4-t-butylbenzyl)thiourea], the negative logarithm of the IC50 (pIC50) at vanilloid receptor is 6.64.
In the case of `CC(C)(C)c1ccc(CNC(=S)NCc2ccc(NS(C)(=O)=O)c(F)c2)cc1` [Example 13, 1-(4-t-butylbenzyl)-3-(3-fluoro-4-methanesulfonylaminobenzyl)thiourea], the inhibition in vivo at 10 mg/kg with Male ICR mice [1] was 82%. Besides, in the assay on Male ICR mice [2], the “Anti-inflammtory effect (% Inhibition)” value was 74%. In addition, the pIC50 at vanilloid receptor (setting [3]) was 7.43. Besides, the “Anti-ulcerous effect (% inhibition)” value with Male SD rats came to 30%.
Consider `CS(=O)(=O)Nc1ccc(CNC(=S)NCCc2ccccc2)cc1F` [Example 15, 1-phenethyl-3-(3-fluoro-4-methanesulfonylaminobenzyl)thiourea], for which the pIC50 on vanilloid receptor is 5.92.
Turning to `CC(C)(C)c1ccc(CNC(=S)NCc2ccc(NS(C)(=O)=O)c(Cl)c2)cc1` [Example 17], the inhibition in vivo at 10 mg/kg in the assay on Male ICR mice [1] came to 98%. Further, the “Anti-inflammtory effect (% Inhibition)” value in the assay with Male ICR mice [2] was determined as 80%. Moreover, the negative logarithm of the IC50 (pIC50) on vanilloid receptor (setting [3]) is 8.08. Moreover, the “Anti-ulcerous effect (% inhibition)” value with Male SD rats is reported as 58%.
As to `COC(=O)c1cc(CNC(=S)NCc2ccc(C(C)(C)C)cc2)ccc1NS(C)(=O)=O` [Example 18], the pIC50 on vanilloid receptor (setting [3]) is 6.14.
Turning to `CC(C)(C)c1ccc(CNC(=S)NCc2ccc(NS(C)(=O)=O)c(C(=O)O)c2)cc1` [Example 19, 1-(4-t-butylbenzyl)-3-(3-carboxyl-4-methanesulfonylaminobenzyl)thiourea], the pIC50 at vanilloid receptor was 8.24.
Take `COC(=O)c1cccc(CNC(=S)NCc2ccc(C(C)(C)C)cc2)c1` [Example 30]: the negative-log IC50 (pIC50) at vanilloid receptor was 5.82.
In the case of `CC(C)(C)c1ccc(CNC(=S)NCc2c(F)c(F)c(NS(C)(=O)=O)c(F)c2F)cc1` [Example 32, 1-(4-t-butylbenzyl)-3-(2,3,5,6-tetrafluoro-4-methanesulfonylaminobenzyl)thiourea], the pIC50 on vanilloid receptor is 7.51.
On to `CC(C)(C)c1ccc(CNC(=S)NCc2cc(F)c(NS(C)(=O)=O)cc2F)cc1` [Example 33, 1-(4-t-butylbenzyl)-3-(2,5-difluoro-4-methanesulfonylaminobenzyl)thiourea], for which the “Anti-inflammtory effect (% Inhibition)” value with Male ICR mice [2] is reported as 66%. Further, the pIC50 on vanilloid receptor was 6.96. For the same compound, in the assay with Male SD rats, the “Anti-ulcerous effect (% inhibition)” value is on record as 31%.
For `CC(C)(C)c1ccc(CNC(=S)NCCc2ccc(NS(C)(=O)=O)cc2)cc1` [Example 36, 1-(4-t-butylbenzyl)-3-(4-methanesulfonylaminophenethyl)thiourea], at vanilloid receptor, the negative-log IC50 (pIC50) was 5.96.
For the compound `CC(C)(C)c1ccc(CNC(=S)NCc2ccc(NS(C)(=O)=O)cc2)cc1` [Example 44], the inhibition in vivo at 3 mg/kg with Male ICR mice [1] turned out to be 92%. The “Anti-inflammtory effect (% Inhibition)” value in the assay on Male ICR mice [2] is reported as 83%. Besides, the “Anti-ulcerous effect (% inhibition)” value in the assay with Male SD rats came out at 36%.
As for `CC(C)(C)c1ccc(CNC(=S)NCc2c(F)ccc(NS(C)(=O)=O)c2F)cc1` [Example 51, 1-(4-t-butylbenzyl)-3-(2,6-difluoro-3-methanesulfonylaminobenzyl)thiourea], the pIC50 at vanilloid receptor was 6.15.
Take `CC(C)(C)c1ccc(CNC(=S)NCc2cccc(NS(C)(=O)=O)c2)cc1` [Example 52, 1-(4-t-butylbenzyl)-3-(3-methanesulfonylaminobenzyl)thiourea]: in the assay on Male ICR mice [1], the inhibition in vivo at 10 mg/kg was determined as 94%.
For the compound `CC(=O)OCc1cc(C(C)(C)C)ccc1CNC(=S)Nc1ccc(NS(C)(=O)=O)cc1` [Example 70, 1-(2-acetoxymethyl-4-t-butylbenzyl)-3-(4-methanesulfonylaminobenzene)thiourea], on vanilloid receptor (Table 1b, neonatal SD rat DRG neurons, inhibition of response to capsaicin 0.5 μM), the negative-log IC50 (pIC50) is 6.24.
On to `Cc1ncsc1CCNC(=S)NCc1ccc(C(C)(C)C)cc1` [Example 73, 1-(4-t-butylbenzyl)-3-[2-(4-methylthiazol-5-yl)ethyl]thiourea], for which the inhibition in vivo at 10 mg/kg in the assay with Male ICR mice [1] stood at 88%. In the assay on Male ICR mice [2], the “Anti-inflammtory effect (% Inhibition)” value came out at 77%. In addition, the pIC50 on vanilloid receptor is 5.92. For the same compound, in the assay with Male SD rats, the “Anti-ulcerous effect (% inhibition)” value is 22%.
Take `CC(C)(C)c1ccc(CNC(=S)NCCc2ccccn2)cc1` [Example 83]: the inhibition in vivo at 10 mg/kg with Male ICR mice [1] worked out at 85%. For the same compound, the pIC50 at vanilloid receptor was 5.96.
For the compound `CC(C)(C)c1ccc(CNC(=S)NCc2cc(F)ccc2F)cc1` [Example 90], the pIC50 on vanilloid receptor is 6.38.
As for `CC(C)(C)c1ccc(CNC(=S)NCCc2cccc(F)c2)cc1` [Example 96], the inhibition in vivo at 10 mg/kg in the assay on Male ICR mice [1] turned out to be 58%. Also, on vanilloid receptor, the pIC50 was 6.23.
Regarding `Cn1cc(NS(C)(=O)=O)cc1CNC(=S)NCc1ccc(C(C)(C)C)cc1` [Example 134], the pIC50 at vanilloid receptor is 6.09.
The same measure, in the same setting: in the case of `COc1cc(CCCN(Cc2ccccc2)/C(S)=N/CCc2ccccc2)ccc1O` [Example 152] it was 6.02.
As to `COc1cc(CCCN(C(=S)NCCc2ccccc2)C(c2ccccc2)c2ccccc2)ccc1O` [Example 161], in the assay with Male ICR mice [1] (dose 1 mg/kg intraperitoneally), the inhibition in vivo at 1 mg/kg came out at 73%. Besides, at vanilloid receptor, the pIC50 was 6.34.
For `CC(C)(C)c1ccc(CNC(=NC#N)NCc2ccc(NS(C)(=O)=O)cc2)cc1` [Example 178], the pIC50 at vanilloid receptor is 6.96.
Take `CC(C)(C)c1ccc(CCC(=O)NCc2ccc(NS(C)(=O)=O)c(F)c2)cc1` [Example 193, N-(3-fluoro-4-methanesulfonylaminobenzyl) 3-(4-t-butylphenyl)propionamide]: on vanilloid receptor, the negative logarithm of the IC50 (pIC50) was 6.68.
Take `CNS(=O)(=O)Nc1ccc(C/N=C(\S)NCc2ccc(C(C)(C)C)cc2)cc1` [Example 194, 1-(4-t-butylbenzyl)-3-(4-methylaminosulfonylaminobenzyl)thiourea]: at vanilloid receptor, the pIC50 is 6.51.
Still for that read-out and setting: the value for `CC(C)(C)c1ccc(CNC(=S)NCc2ccc(NS(N)(=O)=O)cc2)cc1` [Example 196, 1-(4-t-butylbenzyl)-3-(4-aminosulfonylaminobenzyl)thiourea] was 6.82.
Take `COc1ccc2c(c1)c(CC(=O)O)c(C)n2C(=O)c1ccc(Cl)cc1` [Indomethacin, indomethacin, reference compound]: the inhibition in vivo at 3 mg/kg in the assay with Male ICR mice [1] came to 94%. The “Anti-inflammtory effect (% Inhibition)” value with Male ICR mice [2] is recorded as 74%.
With `CNC(=C[N+](=O)[O-])NCCSCc1ccc(CN(C)C)o1` [Ranitidine, ranitidine, reference compound], the “Anti-ulcerous effect (% inhibition)” value in the assay on Male SD rats is reported as 4%.
